In US20130022645A1, “PHARMACEUTICAL FORMULATIONS OF BISPHOSPHONATE WITH ENHANCED ORAL BIOAVAILABILITY” (DONG-A PHARM. CO., LTD., priority 2011, published 2013):
Entries after “also recorded” stand apart in the source; their conditions may differ.

Assays:
[1] = In vitro inhibitory activity of phytic acid and EDTA against complexation of bisphosphonate with calcium (residual risedronate in solution by HPLC); type: physicochemical; details: for Inhibition of calcium-risedronate complexation: Tables 2 to 4, FIGS. 1 to 3
Protocol: Herein, in vitro tests in which after bisphosphonate and a chelating agent were simultaneously added to a solution containing a predetermined amount of calcium ions, correlation between time and residual bisphosphonate in the solution was determined were performed as explained in the following Reference Examples.
Various 50 mL solutions containing 50 mg, 10 mg and 5 mg of calcium in combination with 50 mg and 100 mg of EDTA, or […] as a chelating agent were prepared and used respectively in Reference Examples 1 to 15.
The mechanism in which a chelating agent facilitates the absorption of bisphosphonate can be explained as the degree to which the chelating inhibits bisphosphonate's activity of reacting with minerals (calcium, magnesium, etc.) in the gastrointestinal tract to form insoluble complexes. Thus, in vitro tests for assaying the inhibitory activity of phytic acid or EDTA against the complexation of bisphosphonate in calcium-containing solutions were conducted in Reference Test Example 1.
In a container with a cap, 25 mL of each of the solutions prepared in Reference Example 1 to 15 was placed, followed by agitation at 100 rpm for 120 min in an agitation bath maintained at 37° C. Approximately 1 mL of each of the solutions was taken at time points (immediately after preparation, and 15, 30, 60, 90 and 120 min after agitation) and allowed to pass through 0.45 μm PVDF membrane filters to remove precipitates. Residual resedronate in the solutions was quantitatively analyzed by HPLC.

intestinal mucosa = details: rabbits; cited from earlier work

Structure (SMILES) | Inhibition of calcium-risedronate complexation [1] | Inhibitory activity against complexation compared with EDTA ([1]; in vitro tests) | Amount of phytic acid relative to EDTA needed for the same inhibition of calcium-risedronate complexation ([1]; in vitro, Reference Examples 6 to 10) | Effect on intestinal mucosa (intestinal mucosa)
O=P(O)(O)O[C@H]1[C@H](OP(=O)(O)O)[C@@H](OP(=O)(O)O)[C@H](OP(=O)(O)O)[C@@H](OP(=O)(O)O)[C@H]1OP(=O)(O)O [phytic acid, inositol hexakisphosphate] | inhibit calcium-risedronate complexation in a dose-dependent manner | poorer in inhibitory activity against complexation than was EDTA | at least twice the amount of EDTA; also recorded: twice as large as that of EDTA | –
O=C(O)CN(CCN(CC(=O)O)CC(=O)O)CC(=O)O [EDTA] | inhibit calcium-risedronate complexation in a dose-dependent manner | – | – | irritate the intestinal mucosa
